Experimental findings from paper PMC4780864, “Family-wide Structural Analysis of Human Numb-Associated Protein Kinases” (Structure(London, England:1993), 2016) are described below.

What all share (assay): biochemical
One assay concerns the target AAK1 (Homo sapiens, UniProt Q2M2I8). Also on record: kinase domain; Thermal shift assay (DSF, SYPRO Orange), 2 uM kinase domain, mean delta Tm of triplicates versus DMSO. Particulars: read-out: AAK1. The protocol:
(§1) All measurements were performed in triplicate and mean values were reported for all compounds (Table S1). […] However, NAKs are often omitted from selectivity panels, including commercial screens.

A further assay has as its target T1, BIKE (Homo sapiens, UniProt Q9NSY1).
T1 construct: gene BMP2K; catalytic domain-containing construct
Also on record: Thermal shift assay (DSF, SYPRO Orange), 2 uM kinase domain, mean delta Tm of triplicates versus DMSO. As to conditions: read-out: BIKE. The method, then: as §1

The target in the next assay is T2, MPSK1 (Homo sapiens, UniProt O75716).
T2 construct: gene STK16; catalytic domain-containing construct
The arrangement: Thermal shift assay (DSF, SYPRO Orange), 2 uM kinase domain, mean delta Tm of triplicates versus DMSO. Particulars: read-out: MPSK1. The method, then:
as §1

The target in the next assay is T3, GAK (Homo sapiens, UniProt O14976).
T3 construct: catalytic domain-containing construct
T3 sequence (O14976 1-1311): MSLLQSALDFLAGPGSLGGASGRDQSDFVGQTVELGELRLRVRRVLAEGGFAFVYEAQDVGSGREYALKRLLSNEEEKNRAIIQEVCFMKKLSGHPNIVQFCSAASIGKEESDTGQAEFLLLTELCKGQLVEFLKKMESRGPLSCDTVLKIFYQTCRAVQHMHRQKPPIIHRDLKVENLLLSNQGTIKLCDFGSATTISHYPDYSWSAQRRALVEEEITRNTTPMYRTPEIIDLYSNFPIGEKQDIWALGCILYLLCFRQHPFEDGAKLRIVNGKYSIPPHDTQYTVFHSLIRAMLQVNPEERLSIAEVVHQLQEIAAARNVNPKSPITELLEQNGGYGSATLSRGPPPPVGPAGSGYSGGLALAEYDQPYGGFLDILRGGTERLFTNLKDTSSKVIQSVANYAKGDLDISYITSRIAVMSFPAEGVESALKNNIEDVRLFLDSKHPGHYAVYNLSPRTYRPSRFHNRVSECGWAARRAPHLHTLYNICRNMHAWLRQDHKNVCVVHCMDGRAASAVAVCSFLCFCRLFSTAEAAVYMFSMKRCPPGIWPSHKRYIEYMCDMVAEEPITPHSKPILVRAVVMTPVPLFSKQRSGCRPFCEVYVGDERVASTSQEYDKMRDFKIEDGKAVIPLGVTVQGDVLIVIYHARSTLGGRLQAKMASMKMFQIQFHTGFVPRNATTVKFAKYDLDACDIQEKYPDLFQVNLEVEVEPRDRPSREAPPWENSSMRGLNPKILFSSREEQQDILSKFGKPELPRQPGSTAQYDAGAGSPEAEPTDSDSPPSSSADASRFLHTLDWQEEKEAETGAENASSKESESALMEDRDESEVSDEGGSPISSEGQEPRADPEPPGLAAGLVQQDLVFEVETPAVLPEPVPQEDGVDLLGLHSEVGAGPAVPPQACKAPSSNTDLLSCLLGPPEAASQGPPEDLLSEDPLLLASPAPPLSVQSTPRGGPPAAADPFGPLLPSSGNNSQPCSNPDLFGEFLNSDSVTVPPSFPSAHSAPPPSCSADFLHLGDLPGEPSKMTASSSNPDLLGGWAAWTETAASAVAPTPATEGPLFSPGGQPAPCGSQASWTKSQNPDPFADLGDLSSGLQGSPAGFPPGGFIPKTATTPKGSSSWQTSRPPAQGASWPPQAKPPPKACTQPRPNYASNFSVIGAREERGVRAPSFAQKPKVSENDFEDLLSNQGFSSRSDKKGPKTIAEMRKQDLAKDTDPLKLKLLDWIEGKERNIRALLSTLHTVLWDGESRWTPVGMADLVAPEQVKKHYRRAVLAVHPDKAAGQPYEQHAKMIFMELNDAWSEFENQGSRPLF
The arrangement: Thermal shift assay (DSF, SYPRO Orange), 2 uM kinase domain, mean delta Tm of triplicates versus DMSO. Particulars: read-out: GAK. The protocol: as §1

T2 sequence (O75716 whole entry, the tested form may be a part): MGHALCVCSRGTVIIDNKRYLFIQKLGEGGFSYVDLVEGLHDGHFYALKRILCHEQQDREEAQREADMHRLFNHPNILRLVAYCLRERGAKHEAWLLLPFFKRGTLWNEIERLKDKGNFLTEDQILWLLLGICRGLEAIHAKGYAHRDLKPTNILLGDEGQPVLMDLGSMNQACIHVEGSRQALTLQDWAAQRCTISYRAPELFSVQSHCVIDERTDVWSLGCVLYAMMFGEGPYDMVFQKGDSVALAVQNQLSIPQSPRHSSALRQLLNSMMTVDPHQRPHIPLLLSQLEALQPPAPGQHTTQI
Chain of AAK1 (Q2M2I8 27-365 limits assumed): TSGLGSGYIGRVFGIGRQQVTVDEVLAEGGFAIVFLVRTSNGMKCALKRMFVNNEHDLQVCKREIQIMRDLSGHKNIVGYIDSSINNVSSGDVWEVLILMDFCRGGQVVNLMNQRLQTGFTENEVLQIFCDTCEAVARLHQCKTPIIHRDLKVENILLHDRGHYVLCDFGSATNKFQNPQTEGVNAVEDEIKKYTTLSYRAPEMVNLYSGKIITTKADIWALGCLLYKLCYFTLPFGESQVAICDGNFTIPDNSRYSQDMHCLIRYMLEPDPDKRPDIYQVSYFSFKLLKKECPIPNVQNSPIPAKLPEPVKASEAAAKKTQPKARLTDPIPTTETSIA
T1 sequence (Q9NSY1 whole entry, the tested form may be a part): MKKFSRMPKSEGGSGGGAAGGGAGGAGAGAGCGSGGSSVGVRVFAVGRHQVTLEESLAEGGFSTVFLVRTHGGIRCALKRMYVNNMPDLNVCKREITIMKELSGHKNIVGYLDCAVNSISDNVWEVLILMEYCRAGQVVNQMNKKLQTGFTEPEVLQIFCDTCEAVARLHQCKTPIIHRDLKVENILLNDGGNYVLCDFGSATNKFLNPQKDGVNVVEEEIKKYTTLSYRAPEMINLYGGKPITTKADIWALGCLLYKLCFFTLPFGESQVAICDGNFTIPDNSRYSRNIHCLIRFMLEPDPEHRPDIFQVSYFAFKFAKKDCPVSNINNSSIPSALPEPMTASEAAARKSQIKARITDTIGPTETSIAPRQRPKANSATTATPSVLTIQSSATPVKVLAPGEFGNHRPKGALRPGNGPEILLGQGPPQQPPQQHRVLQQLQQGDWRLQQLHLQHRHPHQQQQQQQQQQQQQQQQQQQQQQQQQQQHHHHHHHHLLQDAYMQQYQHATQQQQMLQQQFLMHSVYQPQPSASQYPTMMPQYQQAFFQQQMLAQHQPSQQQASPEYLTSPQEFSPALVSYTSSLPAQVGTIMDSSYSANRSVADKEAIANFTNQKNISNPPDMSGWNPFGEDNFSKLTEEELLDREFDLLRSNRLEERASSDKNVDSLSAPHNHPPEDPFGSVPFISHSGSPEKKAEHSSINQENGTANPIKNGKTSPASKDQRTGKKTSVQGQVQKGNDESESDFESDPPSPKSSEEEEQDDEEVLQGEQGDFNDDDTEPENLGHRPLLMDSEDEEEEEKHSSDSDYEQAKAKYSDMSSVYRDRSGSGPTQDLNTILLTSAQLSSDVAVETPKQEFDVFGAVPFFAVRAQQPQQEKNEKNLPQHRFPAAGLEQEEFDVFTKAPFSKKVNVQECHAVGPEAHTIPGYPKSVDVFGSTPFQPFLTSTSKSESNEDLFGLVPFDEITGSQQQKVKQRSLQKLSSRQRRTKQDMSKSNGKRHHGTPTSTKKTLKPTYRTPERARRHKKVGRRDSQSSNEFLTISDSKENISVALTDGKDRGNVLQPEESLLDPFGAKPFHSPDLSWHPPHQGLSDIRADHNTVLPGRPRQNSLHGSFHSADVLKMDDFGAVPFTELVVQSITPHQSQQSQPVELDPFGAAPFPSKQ

Turning to `Cc1ccc(-n2nc(C(C)(C)C)cc2NC(=O)Nc2ccc(OCCN3CCOCC3)c3ccccc23)cc1` [Doramapimod], the ΔTm at 12.5 µM at AAK1 was -0.103 °C; at BIKE, 0.16 °C; at MPSK1 it was 0.217 °C; at GAK, -0.607 °C.

Take `CN1CCN(c2ccc3nc(-c4c(N)c5c(F)cccc5[nH]c4=O)[nH]c3c2)CC1` [Dovitinib]: the ΔTm at 12.5 µM is 0.263 °C on AAK1, 0.12 °C at BIKE, 0.593 °C at MPSK1 and -0.0367 °C at GAK.

Take `CN1CCC(COc2cnc(-c3cccc(Cn4nc(-c5cccc(C#N)c5)ccc4=O)c3)nc2)CC1` [EMD1214063]: the ΔTm at 12.5 µM is 0.79 °C at AAK1, 0.493 °C at BIKE, 0.74 °C at MPSK1 and -0.86 °C on GAK.

`Cn1cc(C2=C(c3cn(C4CCN(Cc5ccccn5)CC4)c4ccccc34)C(=O)NC2=O)c2ccccc21` [Enzastaurin]: the ΔTm at 12.5 µM on AAK1 is 0.7 °C; on BIKE, 1.79 °C; on MPSK1, 1.94 °C; on GAK, -0.347 °C.

`C#Cc1cccc(Nc2ncnc3cc(OCCOC)c(OCCOC)cc23)c1` [Erlotinib]: the ΔTm at 12.5 µM stood at 2.7 °C on AAK1, 5.66 °C on BIKE, 0.883 °C at MPSK1 and 3.74 °C at GAK.

In the case of `O=S(=O)(c1cccc2cnccc12)N1CCCNCC1` [Fasudil], the ΔTm at 12.5 µM at AAK1 is 3.27 °C; on BIKE, 7 °C; at MPSK1, 0.903 °C; on GAK it was -0.0367 °C.

Consider `Cc1cnc(Nc2ccc(OCCN3CCCC3)cc2)nc1Nc1cccc(S(=O)(=O)NC(C)(C)C)c1` [Fedratinib], for which the ΔTm at 12.5 µM came out at 10.6 °C at AAK1, 14 °C at BIKE, 12.4 °C at MPSK1 and 8.95 °C at GAK.

For `COc1cc2c(Oc3ccc(NC(=O)C4(C(=O)Nc5ccc(F)cc5)CC4)cc3F)ccnc2cc1OCCCN1CCOCC1` [Foretinib], the ΔTm at 12.5 µM at AAK1 amounted to 1.13 °C; at BIKE, 1.32 °C; on MPSK1 it was 1.87 °C; on GAK, 2.36 °C.

For the molecule `CCn1c(-c2nonc2N)nc2cnc(Oc3cccc(NC(=O)c4ccc(OCCN5CCOCC5)cc4)c3)cc21` [GSK269962], the ΔTm at 12.5 µM at AAK1 was 7.43 °C; on BIKE it was 6.73 °C; on MPSK1, 2.88 °C; at GAK, 0.157 °C.

`O=C(O)c1ccc(-c2c[nH]c3ncc(-c4ccccc4)cc23)cc1C1CCCC1` [GSK650394]: the ΔTm at 12.5 µM at AAK1 came out at 8.29 °C; at BIKE, 13 °C; on MPSK1, 8.84 °C; at GAK, 7.69 °C.

On to `CNC(=O)c1c(F)cccc1Nc1nc(Nc2cc3c(ccn3C(=O)CN(C)C)cc2OC)nc2[nH]ccc12` [GSK1838705A], for which the ΔTm at 12.5 µM on AAK1 is 0.143 °C; at BIKE, 0.543 °C; on MPSK1 it was 1.27 °C; at GAK, 0.74 °C.

Consider `CCc1cc(Nc2nccc(-c3c(-c4ccc(OC)c(C(=O)Nc5c(F)cccc5F)c4)nc4ccccn34)n2)c(OC)cc1N1CCC(N2CCN(S(C)(=O)=O)CC2)CC1` [GSK1904529A], for which the ΔTm at 12.5 µM was -0.16 °C at AAK1, 0.13 °C at BIKE, -0.0133 °C at MPSK1 and 0.227 °C at GAK.

Turning to `COc1ncc(-c2ccc3nccc(-c4ccnnc4)c3c2)cc1NS(=O)(=O)c1ccc(F)cc1F` [GSK2126458], the ΔTm at 12.5 µM was found to be 4.05 °C at AAK1, 5.45 °C at BIKE, 6.45 °C at MPSK1 and 3.33 °C at GAK.

Turning to `CNc1nc(-c2ccc3c(N)n[nH]c3c2)cc(N2C[C@@H](C(=O)NC3CCCCC3)CC[C@H]2C)n1` [GSK2334470], the ΔTm at 12.5 µM amounted to 4.98 °C at AAK1, 5.35 °C at BIKE, 0.883 °C on MPSK1 and 1.69 °C on GAK.

As to `Cc1c(Cn2c(C)nc3c(C(=O)O)cc(N4CCOCC4)cc32)cccc1C(F)(F)F` [GSK2636771], the ΔTm at 12.5 µM is 0.317 °C on AAK1, 0.39 °C on BIKE, 0.763 °C at MPSK1 and -0.483 °C on GAK.

Regarding `Cc1cccc(-c2nn3c(c2-c2ccnc4ccc(C(N)=O)cc24)CCC3)n1` [Galunisertib], the ΔTm at 12.5 µM stood at 0.47 °C on AAK1, 0.583 °C at BIKE, 0.97 °C at MPSK1 and 3.39 °C on GAK.

Turning to `Cc1cc(Nc2cc(CN3CCOCC3)c3nc(C)c(Cc4ccc(Cl)cc4F)n3n2)n[nH]1` [Gandotinib], the ΔTm at 12.5 µM on AAK1 amounted to 6.86 °C; at BIKE it was 10.2 °C; at MPSK1, 9.07 °C; on GAK, 0.333 °C.

Turning to `COc1cc2ncnc(Nc3ccc(F)c(Cl)c3)c2cc1OCCCN1CCOCC1` [Gefitinib], the ΔTm at 12.5 µM at AAK1 worked out at 1.69 °C; at BIKE it was 2.84 °C; at MPSK1, 0.263 °C; at GAK, 6.66 °C.

Take `CC(C)n1nc(-c2ccc3oc(N)nc3c2)c2c(N)ncnc21` [INK128]: the ΔTm at 12.5 µM at AAK1 was found to be 0.0667 °C; at BIKE it was 0.41 °C; on MPSK1, 1.64 °C; on GAK it was 0.577 °C.

Consider `C[C@H](Nc1ncnc2nc[nH]c12)c1cc2cccc(Cl)c2c(=O)n1-c1ccccc1` [IPI-145], for which the ΔTm at 12.5 µM is 0.21 °C at AAK1, 0.24 °C on BIKE, 0.847 °C on MPSK1 and -0.497 °C on GAK.

In the case of `C=CC(=O)N1CCC[C@@H](n2nc(-c3ccc(Oc4ccccc4)cc3)c3c(N)ncnc32)C1` [Ibrutinib], the ΔTm at 12.5 µM is 0.0167 °C at AAK1, 0.397 °C at BIKE, 1.76 °C on MPSK1 and -0.293 °C on GAK.

For the molecule `C#Cc1cccc(Nc2ncnc3cc4c(cc23)OCCOCCOCCO4)c1` [Icotinib], the ΔTm at 12.5 µM at AAK1 was 2.56 °C; at BIKE, 4.47 °C; on MPSK1, 0.81 °C; at GAK, 3.33 °C.

On to `CC[C@H](Nc1ncnc2[nH]cnc12)c1nc2cccc(F)c2c(=O)n1-c1ccccc1` [Idelalisib], for which the ΔTm at 12.5 µM on AAK1 turned out to be 0.29 °C; at BIKE, 0.527 °C; at MPSK1 it was 1.52 °C; on GAK, 1.01 °C.

As for `CC(C)NC[C@@H](C(=O)N1CCN(c2ncnc3c2[C@H](C)C[C@H]3O)CC1)c1ccc(Cl)cc1` [Ipatasertib], the ΔTm at 12.5 µM at AAK1 was 0.3 °C; at BIKE, 0.34 °C; on MPSK1 it was 0.84 °C; on GAK it was -0.727 °C.

For `O=C(Cc1ccc(-c2ccc(OCCN3CCOCC3)cc2)cn1)NCc1ccccc1` [KX2-391], the ΔTm at 12.5 µM came to 0.0867 °C on AAK1, 1.76 °C at BIKE, 0.373 °C on MPSK1 and 0.46 °C at GAK.

Consider `C[C@@H](Oc1ccc2[nH]nc(/C=C/c3cnn(CCO)c3)c2c1)c1c(Cl)cncc1Cl` [LY2874455], for which the ΔTm at 12.5 µM at AAK1 amounted to 11.6 °C; on BIKE, 15.2 °C; at MPSK1, 10.3 °C; on GAK, 5.81 °C.

Consider `CS(=O)(=O)CCNCc1ccc(-c2ccc3ncnc(Nc4ccc(OCc5cccc(F)c5)c(Cl)c4)c3c2)o1` [Lapatinib], for which the ΔTm at 12.5 µM on AAK1 was determined as 1.7 °C; on BIKE, 1.13 °C; at MPSK1, 1.16 °C; at GAK it was 1.67 °C.
